Experimental data taken from US12358880B2, “1,4-bis-(2-hydroxy-benzyl)-1,4,7-triazacyclononane derivatives and similar compounds as ligands in iron(III) complexes for use as MRI contrast agents” (BRACCO IMAGING S.P.A., priority 2022, dated 2025).
Read-outs that look alike come from different tables or passages of the source. Marks after values point to notes of the source that are not given here. One block for each molecule: values may come before it.

Columns and labels:
[1] = 0.15M NaNO3; from Baranyai et al., Chem. Sci. 2021; cited from earlier work
[2] = Protonation constants of the Fe(III) complexes (pH-potentiometry / UV spectrophotometry); format: physicochemical
Description: The protonation constants (KMHiLigand=[MHiLigand]/([MHi-1Ligand]×[H^+])) of the Fe(III) complexes of Compound 2, of Compound 4, of NOTA (comparative), and of HBED (comparative) were determined by pH-potentiometric and/or by spectrophotometric studies.
In particular, the protonation constants of the Fe(NOTA) and Fe(HBED) complexes were determined using pH-potentiometry by titrating the pre-prepared complexes from pH=1.7 to pH=12.0 with 0.2 M NaOH([FeL]=0.002 M). For the pH measurements and titrations, Metrohm 888 Titrando titration workstation Metrohm-6.0234.110 combined electrode was used. Equilibrium measurements were carried out at a constant ionic strength (0.15 M NaNO3 or NaClO4) in 6 ml samples at 25° C. The solutions were stirred, and N2 was bubbled through them. The titrations were made in the pH range of 1.7-12.0. KH-phthalate (pH=4.005) and borax (pH=9.177) buffers were used to calibrate the pH meter. For the calculation of [H^+] from the measured pH values, the method disclosed in Irving et al. Anal. Chim. Acta, 1967, 38, 475-488 was used as follows: a 0.01M HNO3 or HClO4 solution was titrated with a standardized NaOH solution at 0.15 M NaNO3 ionic strength. The differences (A) between the measured (pHread) and calculated pH (−log [H^+]) values were used to obtain the equilibrium H^+ concentration from the pH values measured in the titration experiments (A=0.02 for 0.15 M NaNO3, 0.01 for 0.15 M NaClO4). For the equilibrium calculations, the stoichiometric water ionic product (pKw) was also needed to calculate [OH^−] values under basic conditions. The VNaOH-pHread data pairs of the HNO3—NaOH titration obtained in the pH range 10.5-12.0 were used to calculate the pKw value (pKw=13.76).
The protonation constants of Fe(Compound 2) and Fe(Compound 4) complexes were determined by UV spectrophotometry analysis in the wavelength range of 210-700 nm ([Fe(Compound 2)]=43 μM, [Fe(Compound 4)]=100 μM, 0.15 M NaClO4, 25° C.) according to the method disclosed in Example 11A above.

[3] = for pFe (−log [Fe^3+]free, conditional stability): 10 µM, pH 7.4
Description: (§1) To assess the thermodynamic stability of the Fe(III) complexes of the invention, as well as of comparative ones, the protonation constants of the respective ligands first, and then of the Fe(III) complexes, were determined by pH-potentiometry and/or by UV spectrophotometry. Finally, based on the protonation constants, the thermodynamic stability constant of the Fe(III) complexes of the invention were determined by observing the competition reaction between the Fe(III) complexes and the N,N′-bis(2-hydroxybenzyl)ethylenediamine-N,N′-diacetic acid (HBED) ligand using capillary zone electrophoresis (CZE) for Compound 2 and Vis spectrophotometry for Compound 4.
(§2) The thermodynamic stability constants (KMLigand=([MLigand]/([M]×[Ligand])) of the Fe(III) complexes were determined as follows.
(§3) The stability constant of the Fe(NOTA) complex was determined by spectrophotometry studies of the Fe^3+-NOTA system at the absorption band of Fe^III complexes at [H^+]=0.01-3.0 M in the wavelength range of 350-800 nm. The concentrations of Fe^3+ and NOTA were 0.002 M. The H^+ concentration in the samples was adjusted with the addition of calculated amounts of a 6 M solution of HNO3 (I=[Na^+]+[H^+]=0.15, [H^+]≤0.15 M). The samples were kept at 25° C. for two weeks.
(§4) The absorbance values of the samples were determined at 11 wavelengths (370, 380, 390, 395, 400, 405, 410, 415, 420, 425 and 430 nm). For the calculations of the thermodynamic stability constant of the Fe(NOTA), the molar absorptivities of Fe^3+ and Fe(NOTA) were determined by recording the spectra of 1.0×10^−3, 1.5×10^−3, 2.0×10^−3 and 2.5×10^−3 M solutions of Fe^3+ and Fe(NOTA) solutions. The absorption spectra of the Fe(NOTA) solutions were recorded in the pH range of 1.7-7.5. All spectrophotometric measurements were performed at 25° C. in 0.15 M NaNO3 solution. The pH was adjusted by stepwise addition of concentrated NaOH or HNO3 solutions.
(§5) The stability constants of the Fe(HBED) complex was determined by following the competition reaction between HBED and NOTA ligands for Fe^3+-ion with spectrophotometry at the absorption band of Fe(HBED) complex in the wavelength range of 400-700 nm. […] The time needed to reach the equilibria was determined by spectrophotometry. The absorbance values of the samples were determined at the absorption band of the Fe(HBED) complex ([Fe(HBED)]-species predominates at pH=5.0). For the calculations of the thermodynamic stability constants of the Fe(HBED) complexes, the molar absorptivities of [Fe(HBED)]-species were determined by recording the spectra of 0.5, 0.1 and 0.2 mM solutions of [Fe(HBED)]^− at pH=5 in the presence of 0.15 M NaNO3. […] The thermodynamic stability constants were calculated with the PSEQUAD program. […]

[4] = Kinetic inertness: transchelation reactions with excess HBED as exchanging ligand; format: physicochemical
Description: To obtain data relating to the kinetic inertness of Fe(Compound 2), Fe(Compound 4) and Fe(NOTA) (comparative), the transchelation reactions (schematized below) were investigated by VIS-spectrophotometry (for Fe(Compound 4) and Fe(NOTA), comparative) and by Capillary Zone Electrophoresis (CZE) (for Fe(Compound 2)) in the presence of a large excess of HBED as an exchanging ligand (Fe(Compound 2): [Fe(Compound 2)]=87 μM, [HBED]=0.1 and 0.2 M, 1.0 M NaClO4, 25° C.; Fe(Compound 4): [Fe(Compound 4)]=100 μM, [HBED]=0.002 and 0.02 M, 0.15 M NaNO3, 25° C. Fe(NOTA): [Fe(NOTA)]=0.2 mM, [HBED]=2.0 and 4.0 mM, 0.15 M NaNO3, 25° C.) in order to guarantee the pseudo-first order kinetic conditions. FeL+HBED ? Fe(HBED)+L with L=Compound 2, Compound 4 or NOTA. A) Determination of Kinetic Inertness of Fe(III) Complexes
The transchelation reactions of Fe(Compound 4) and Fe(NOTA) (comparative) were studied by spectrophotometry, following the formation of the resulting Fe(HBED) complex at 472 and 470 nm with PerkinElmer Lambda 365 UV-Vis spectrophotometer. The concentration of the Fe(Compound 4) and Fe(NOTA) complex was 0.1 and 0.2 mM, while the concentration of the HBED was 10-200 times higher, in order to guarantee pseudo-first-order conditions. The temperature was maintained at 25° C. and the ionic strength of the solutions was kept constant, 0.15 M for NaNO3. The exchange rates were studied in the pH range about 9.5-14.0. Buffer was not used since the excess of HBED was able to maintain the constant pH values at pH<12. […] The pseudo-first-order rate constants (kd) were calculated by fitting of the absorbance—time data pairs to Equation 2.
[formula] where At, A0 and Ap are the absorbance values at time t, the start of the reaction and at equilibrium, respectively. […] The pseudo-first-order rate constants (kd) were calculated by fitting the area-time data pairs to Equation 2 above, where At, A0 and Ap are the area values at time t, the start of the reaction and at equilibrium, respectively. […]

[5] = Thermodynamic stability of the Fe(III) complexes (competition with HBED/NOTA, CZE or spectrophotometry); conditions: Spectrophotometry, 0.15M NaNO3, 25° C.
Description: as §1, §2, §3, §4, §5

[6] = 60 MHZ, 40° C. in PBS buffer; cited from earlier work
[7] = Spectrophotometry, 0.15M NaClO4, 25° C.
[8] = 0.15M NaNO3, 25° C., spectrophotometry
[9] = pH-potentiometry, 0.15M NaNO3, 25° C.

FeH2L (protonation constant of the Fe(III) complex) [2, 7]: 9.47 (1)^b | FeH3L (protonation constant of the Fe(III) complex) [2, 7]: 7.82 (5)^b | FeHL (protonation constant of the Fe(III) complex) [2, 7]: 10.53 (4)^b | pFe (−log [Fe^3+]free, conditional stability) [3]: 32.4 | FeL (thermodynamic stability constant, log KFeL) ([3]; 4 weeks, 87 µM, pH 11): 44.0 (3)
SMILES: Cc1cc(CNC(CO)CO)c(O)c(CN2CCN(Cc3cc(C)cc(CNC(CO)CO)c3O)CCN(Cc3cc(C)cc(CNC(CO)CO)c3O)CC2)c1 [Compound 2, 2,2′,2″-{1,4,7-triazonane-1,4,7-triyltris[methylene(2-hydroxy-5-methyl-3,1-phenylene)methyleneazanediyl]}tri(propane-1,3-diol)]
kd (s^−1) at pH = 7.4 (dissociation rate constant) ([4]; 1.0M NaClO4, 25° C., CZE, extrapolated from data at pH>9.0): 1.9 × 10^−9 s^−1

FeH2L (protonation constant of the Fe(III) complex) [2, 7]: 6.02 (1)^b | FeHL (protonation constant of the Fe(III) complex) [2, 7]: 8.82 (1)^b | FeLH−1 (protonation constant of the Fe(III) complex) [2, 7]: 10.12 (1)^b | pFe (−log [Fe^3+]free, conditional stability) [3]: 26.5
SMILES: Cc1cc(CNC(CO)CO)c(O)c(CN2CCNCCN(Cc3cc(C)cc(CNC(CO)CO)c3O)CC2)c1 [Compound 4, 2,2′-{1,4,7-triazonane-1,4-diylbis[methylene(2-hydroxy-5-methyl-3,1-phenylene)methyleneazanediyl]}di(propane-1,3-diol)]
kd (s^−1) at pH = 7.4 (dissociation rate constant) [4, 8]: 3.4 × 10^−8 s^−1

FeLH−1 (protonation constant of the Fe(III) complex) [2, 9]: 9.12 (4)
SMILES: O=C(O)CN1CCN(CC(=O)O)CCN(CC(=O)O)CC1 [NOTA, reference compound]
kd (s^−1) at pH = 7.4 (dissociation rate constant) [4, 8]: 4.0 × 10^−9 s^−1

The next lines start with the molecule.

SMILES: O=C(O)CN(CC(=O)O)C1CCCCC1N(CC(=O)O)CC(=O)O (stereo not drawn) [CDTA, trans-cyclohexane diamine tetraacetic acid]
kd (s^−1) at pH = 7.4 (dissociation rate constant) [1]: 2.1 × 10^−9 s^−1

SMILES: O=C(O)CN(CCN(CC(=O)O)CC(=O)O)CC(=O)O [EDTA]
kd (s^−1) at pH = 7.4 (dissociation rate constant) [1]: 2.9 × 10^−6 s^−1

SMILES: O=C([O-])CN(CCN(CC(=O)[O-])Cc1ccccc1[O-])Cc1ccccc1[O-].[Fe+3] [Fe(HBED)]
FeL (thermodynamic stability constant, log KFeL) [5]: 40.2

SMILES: O=C(O)CN(CCN(CC(=O)O)Cc1ccccc1O)Cc1ccccc1O [HBED, N,N′-bis(2-hydroxybenzyl)ethylenediamine-N,N′-diacetic acid, reference compound]
FeHL (protonation constant of the Fe(III) complex) [2, 9]: 1.87 (4) | FeLH−1 (protonation constant of the Fe(III) complex) [2, 9]: 12.3 (1) | r1 of Fe(III) complex [6]: 0.49 mM⁻¹ s⁻¹
